Here are results for one molecule from patent US20190152986A1, “CRYSTAL FORM A OF MILBEMYCIN A3 OXIME AND PREPARATION METHOD THEREOF” (Zhejiang Hisun Pharmaceutical Co., Ltd., priority 2016, published 2019).

Common to all, as to format: physicochemical
A short description of data set [1]: Degradation stability test: original sample and overall comparison (HPLC content determination). The text has this: Meanwhile, the degradation stabilities of A3/A4 oxime and the crystal form A of A3 oxime were compared in the invention, and the degradation conditions are as follows:
(§1) The HPLC conditions for content determination are as follows: […]

Data set [2] in a line: Oxidative degradation (30% hydrogen peroxide, 24 hours). As to the method: 1) Oxidative Degradation A sample of 50 mg was weighed accurately and added to a 100.0 ml volumetric flask, dissolved by adding 10 ml methanol, 1.0 ml of 30% hydrogen peroxide was added, standing for 24 hours, then was diluted to the scale with methanol.
as §1

Data set [3] is described as follows: Photodegradation (light box, 600 w/m^2, 24 hrs). As to the method:
According to the ICH requirement, the total illuminance requirement of 200 w·hr/m^2 and 1,200,000 lux·hr is required for photodegradation. If the illuminance is 600 w/m^2, the ICH requirement is met, and the illumination time needs at least 9 hrs.
Approximately 600 mg of the sample was weighed, placed evenly in a weighing bottle, placed into a light box with an illuminance of 600 w/m^2 and illuminated for 24 hrs, taken out, placed into a desiccator and cooled to room temperature, and the weight loss on drying was measured.
as §1

The nature of data set [4]: Protection from light (black PE bag and aluminum foil bag in light box, 18 hrs). As to the method: About 600 mg of the sample was weighed, placed evenly in a weighing bottle, the weighing bottle containing the sample was put into a black PE bag, and then the PE bag was packaged with an aluminum foil bag, the aluminum foil bag was placed into a light box with an illuminance of 600 w/m^2. After illumination of 18 hrs, taken out, placed into a desiccator and cooled to room temperature, and the weight loss on drying was measured.
as §1

Setting [5] is: Oxidation: 30% hydrogen peroxide in methanol, standing for 24 hours.
Where [6] appears, read: Illumination: 600 w/m^2 for 24 hrs.
[7] abbreviates: Protection from light: PE bag and aluminum foil bag, light box 600 w/m^2, 18 hrs.

`CC1=C[C@H]2C(=O)O[C@H]3C[C@@H](C/C=C(\C)C[C@@H](C)/C=C/C=C4\CO[C@H](/C1=N\O)[C@@]42O)O[C@@]1(CC[C@H](C)[C@@H](C)O1)C3` [crystal form A of A3 oxime, Milbemycin A3 oxime]: the Content in data set [1] (Original sample, HPLC) turned out to be 98.1%; in data set [2] (setting [5]), 98.3%; in data set [3] (setting [6]) it was 96.8%; in data set [4] (setting [7]), 96.9%. Besides, the “Total Impurity” value in data set [1] (Original sample, HPLC) is reported as 0.3215%; in data set [2] (setting [5]) it was 0.2368%; in data set [3] (setting [6]), 1.57%; in data set [4] (setting [7]), 0.3371%. In addition, the “stability (degradation stability test results)” value in data set [1] (overall comparison of Table 2) was “significantly better than that of A3/A4 oxime”. Besides, the “Total Impurity increment” value was −0.0847% in data set [2] (Oxidation, versus original sample); 1.2485% in data set [3] (Illumination, versus original sample); 0.0156% in data set [4] (Protection from light, versus original sample).
